According to paper PMC10870750 (ACS Polymers Au, 2023):
Positions of bridges follow the written chain, without caps; N, C: chain ends. Non-standard residues stand in square brackets, D forms with d. Residues, ends and D or L forms follow the SMILES beside them. S5 = C=CCCC[C@](C)(N)C(=O)O

Key:
[1] = Dynamic light scattering; format: physicochemical; details: 200 μM in 10 mM PBS; from lack of reliable DLS data and visibly clear solutions
[2] = system: human red blood cells (RBCs); details: 50 μM; ref our previous study; cited from earlier work

For `CC[C@H](C)[C@H](NC(=O)[C@H](C)NC(=O)[C@H](CCCCN)NC(=O)[C@H](CO)NC(=O)[C@H](CCC(=O)O)NC(=O)[C@@H]1CCCN1C(C)=O)C(=O)N[C@@H](CCCCN)C(=O)N[C@@]1(C)CCCC=CCCC[C@@](C)(C(=O)N[C@H](C(=O)N[C@@H](CO)C(=O)N[C@@H](CCCCN)C(=O)N[C@@H](CCC(=O)O)C(=O)N[C@@H](CCCNC(=N)N)C(=O)N[C@@H](CO)C(=O)N[C@@H](CCCCN)C(=O)N[C@@H](CCCNC(=N)N)C(=O)N[C@@H](CO)C(=O)N2CCC[C@H]2C(N)=O)C(C)C)NC(=O)[C@H](CCCCN)NC(=O)[C@H](CC(C)C)NC(=O)[C@H](CC(C)C)NC1=O` [stapled Ac-P9] (Ac-PESKAIK[S5]LLK[S5]VSKERSKRSP-NH2; staple 8-12), which “solubility / aggregation state in solution” value [1] is on record?
The value was “soluble or exists in very small aggregates”.

What about the hemolysis [2] of the same molecule?
Its hemolysis is “does not induce significant hemolysis”.
